# In US11390617B2, “Methods of treating non-Hodgkin lymphoma using 2-(2,6-dioxopiperidin-3-yl)-4-((2-fluoro-4-((3-morpholinoazetidin-1-yl)methyl)benzyl)amino)isoindoline-1,3-dione” (Celgene Corporation, priority 2019, dated 2022):
# How the values were obtained:
# [1] = test system: lymphoma cell lines WSU-DLCL2, SU-DHL6, and RL; assay: NK mediated cell killing (ADCC) with rituximab; format: cell-based, human; conditions: NK cells pre-treated with Compound 1 100 nM 18 hours; rituximab 7.5 ug/mL, 4 hours
# Method: Commercial purified NK cells isolated from human peripheral blood mononuclear cell (PBMC) were seeded at a concentration of 10^6 cells/mL, cultured in media supplemented with 10 ng/mLrhIL-2 and treated with Compound 1 (100 nM) for 18 hours at 37° C. prior to cytotoxicity assays. Target lymphoma cell lines were added to the pre-treated effector NK cells at a 1:10 (target:effector) cell ratio for WSU-DLCL2 and RL lines or 1:3 for SU-DHL6. At the time of co-culture, rituximab or isotype control at 7.5 ug/mL were added to the media and cells were incubated for 4 hours at 37° C. Then, cells were collected, stained with CD20, Annexin V and 7AAD and analyzed by FACS.
# [2] = test system: RL follicular lymphoma xenograft tumors; assay: RL (follicular lymphoma) xenograft model, alone and in combination with rituximab; format: in vivo, female SCID mice; conditions: Compound 1 0.3 mg/kg oral, 5 days on 2 days off for 3 weeks, single agent
# Method: Female 6- to 8-weeks-old CB17 SCID mice were obtained from Charles River Laboratories. Mice were housed in a barrier facility in micro-isolator cages at 10 animals per cage. Mice were fed with Harlan-Teklad LM-485 Mouse/Rat Sterilizable Diet and autoclaved water ad libitum and maintained on a 12 hours light-dark cycle. Animals were acclimatized to the animal housing facility for a period of 7 days before the beginning of the experiment. All animal studies were performed under protocols approved by Institutional Animal Care and Use Committees.
# Suspensions of Compound 1 were pared in aqueous 0.5% Methyl Cellulose, 0.25% Tween 80 and 50 mM Citrate pH 3. […]
# Tumor cells were injected subcutaneously in the flank region above the right hind legs of female CB17 SCID mice. […] Tumor volumes were determined before the initiation of treatment and were considered as the starting volumes. Tumors were measured twice a week for the duration of the study. The long and short axes of each tumor were measured using a digital caliper in millimeters. The tumor volumes were calculated using the formula: width^2×length/2. […]
# Xenograft data are expressed as mean±SEM. […]
# Xenograft study was conducted with female SCID mice bearing RL follicular lymphoma xenograft tumors. […] Tumors were measured twice a week using calipers and tumor volumes were calculated using the formula of W^2×L/2. […]
# [3] = test system: OCI-LY10-Luc CNS DLBCL xenograft; assay: OCI-LY10-Luc CNS lymphoma xenograft model (intracranial); format: in vivo, Nude (nu/nu) mice; conditions: for % BLI Inhibition on Day 26 / Median Survival: 3 weeks; for % BLI Inhibition on Day 26: relative to vehicle control; for Median Survival: vehicle 35 days
# Method: Antitumor activity of Compound 1 was evaluated as a single agent in OCI-LY10-luc diffuse large B-cell lymphoma (DLBCL) xenografted intracranially into nude mice as a model for central nervous system (CNS) lymphoma.
# CNS lymphoma study was conducted with OCI-LY-10 cells transfected with luciferase (OCI-LY-10-Luc). Nude (nu/nu) mice were inoculated intracranially into the right cerebral hemisphere of the brain with OCI-LY10-Luc cells. Following inoculation of animals, the tumors were allowed to grow for 5 days. On day 5 following tumor cell inoculation, the mice were imaged using IVIS100 imaging system. The mice having tumors with an average flux ranging between 1×10^7 and 2×10^7 photons/sec were pooled together and randomized into various treatment groups. Compound 1 was formulated in 0.5% Methyl Cellulose, 0.25% Tween 80 and 50 mM Citrate pH 3 (MCT) in water. The animals were orally administered vehicle (MCT) or Compound 1 once daily (QD) for 3 weeks. Doses of Compound 1 ranged between 3 and 30 mg/kg. The positive control pomalidomide (30 mg/kg, QD) formulated in aqueous 0.5% CMC and 0.25% Tween-80 was administered PO. The animals were imaged for bioluminescence once a week using IVIS100 imaging system and monitored for survival. Statistical analysis was performed using a log-rank test between Compound 1-treated and vehicle-treated control groups.
smiles,measurement,setting,value
"O=C1CC[C@H](N2C(=O)c3cccc(NCc4ccc(CN5CC(N6CCOCC6)C5)cc4F)c3C2=O)C(=O)N1 [Compound 1, (S)-2-(2,6-dioxopiperidin-3-yl)-4-((2-fluoro-4-((3-morpholinoazetidin-1-yl)methyl)benzyl)amino)isoindoline-1,3-dione]","rituximab cytotoxicity of lymphoma cell lines (NK mediated cell killing, ADCC)",[1],able to increase rituximab cytotoxicity of lymphoma cell lines
same,tumor volume reduction,[2],36%
same,% BLI Inhibition on Day 26,[3]; 3 mg/kg QD oral,97.2%
same,Median Survival,[3]; 3 mg/kg QD oral,61 days
same,% BLI Inhibition on Day 26,[3]; 10 mg/kg QD oral,99.1%
same,Median Survival,[3]; 10 mg/kg QD oral,69 days
same,animals survived with no detectable bioluminescence signal,"[3]; 10 mg/kg, day 120 (2/9)",22.2%
same,% BLI Inhibition on Day 26,[3]; 30 mg/kg QD oral,99.5%
same,Median Survival,[3]; 30 mg/kg QD oral,97 days
same,animals survived with no detectable bioluminescence signal,"[3]; 30 mg/kg, day 120 (3/9)",33.3%
